Values joined by “and” are separate entries in the source; they are usually repeats but may differ in a detail not shown here. Identical values can stand only once.
Tested on: CBDRx Cherry hemp clones
Experiment: Foliar spray of MS, MDJ and MS+MDJ on hemp clones: biomass, cannabinoid and terpene analysis
Type: in vivo, Cannabis spp.
Parameters: CBDA / CBD / THCA / Total CBG / Total cannabinoids: unit not given here
Description: Methyl salicylate (MS) is an antagonistic compound to the jasmonates. To investigate the effect of MS alone and in conjunction with MDJ, MS (CAS No.: 119-36-8), MDJ, and the combination (MS+MDJ) were applied by foliar spray to CBDRx Cherry hemp clones once per week during both vegetative and flowering phases. Plants were transplanted into 1-gallon pots with Red's soil and put into vegetative light cycle (18L/6D). […] Plants were grown under a total of 12 Boost (Thrive Agritech, NY) 130-watt LED lights set to 18L: 6D photoperiod during the vegetative phase (2 weeks) and this was followed by a 12L: 12D photoperiod during the flowering phase (7 weeks), using the same lighting fixtures. Throughout the nine weeks, all plants were watered when needed with Jack's nutrients.
MS or MDJ treatments were applied at the following concentrations: [1 mM], [4.25 mM], [7.5 mM] and [10 mM]. Each concentration was prepared from a one molar stock solution diluted with RO water and TWEEN®-20 (1M stock) was added. Each plant was sprayed till dripping, which was approximately 50-75 ml. To apply the combination of the two biochemicals, MS and MDJ were sprayed separately but simultaneously, to ensure each compound was applied evenly onto the plant. Each compound was applied using a SPRAYMASTER Chemical Sprayer (King of Prussia, Pa.).
Plants were harvested two months after transplant. After harvesting, plants were air dried at room temperature for two weeks. Once plants were sufficiently dry, above ground dry weights were recorded and dried flower samples were collected and sent to a third-party lab for terpene and cannabinoid analysis. Two plants (#3 and #4) in treatment group MDJ [7.5] mM, two plants (#3 and #4) in MS [4.25] mM, one plant (#4) in MS [7.5], and one plant (#4) in MDJ [10] died before the end of the experiment.

[1] = 7.5 mM foliar spray, Avg. of group
[2] = 7.5 mM foliar spray, individual plant
[3] = 10 mM foliar spray, Avg. of group
[4] = 10 mM foliar spray, individual plant

Compound: COC(=O)c1ccccc1O [MS, Methyl salicylate]
- Alpha-humulene [1]: 0.09093 % wt/wt
- Beta-caryophyllene [1]: 0.23 % wt/wt
- CBCA [1]: 0.66
- CBD [1]: 0.1833
- CBDA [1]: 12.833
- CBGA [1]: 0.41
- Limonene [1]: 0.09533 % wt/wt
- THCA [1]: 0.57
- Total CBD [1]: 11.44
- Total CBG [1]: 0.356
- Total cannabinoids [1]: 14.656
- Total d9THC [1]: 0.5
- alpha-pinene [1]: 0 % wt/wt
- beta-myrcene [1]: 0.7014 % wt/wt
- beta-pinene [1]: 0 % wt/wt
- total terpenes [1]: 1.343 % wt/wt
- plants died before the end of the experiment (7.5 mM foliar spray, four plants per treatment group): one plant
- Alpha-bisabolol [2]: 0.1154 % wt/wt and 0.1201 % wt/wt and 0.1349 % wt/wt
- Alpha-humulene [2]: 0.0878 % wt/wt and 0.083 % wt/wt and 0.102 % wt/wt
- Beta-caryophyllene [2]: 0.2204 % wt/wt and 0.2101 % wt/wt and 0.2595 % wt/wt
- CBCA [2]: 0.68 (2×) and 0.62
- CBD [2]: 0.3 and 0.1 and 0.15
- CBDA [2]: 12.97 and 12.23 and 13.3
- CBGA [2]: 0.4 and 0.37 and 0.46
- Limonene [2]: 0.0902 % wt/wt and 0.0968 % wt/wt and 0.099 % wt/wt
- THCA [2]: 0.57 and 0.55 and 0.59
- Total CBD [2]: 11.68 and 10.83 and 11.81
- Total CBG [2]: 0.35 and 0.32 and 0.4
- Total cannabinoids [2]: 14.92 and 13.87 and 15.18
- Total d9THC [2]: 0.5 and 0.48 and 0.52
- alpha-pinene [2]: 0 % wt/wt
- beta-myrcene [2]: 0.6564 % wt/wt and 0.7151 % wt/wt and 0.7328 % wt/wt
- beta-pinene [2]: 0 % wt/wt
- total terpenes [2]: 1.27 % wt/wt and 1.32 % wt/wt and 1.44 % wt/wt
- Alpha-bisabolol [3]: 0.109 % wt/wt
- Alpha-humulene [3]: 0.07612 % wt/wt
- Beta-caryophyllene [3]: 0.1899 % wt/wt
- CBCA [3]: 0.73
- CBD [3]: 0.155
- CBDA [3]: 14.5975
- CBGA [3]: 0.4775
- Limonene [3]: 0.1418 % wt/wt
- THCA [3]: 0.625
- Total CBD [3]: 12.96
- Total CBG [3]: 0.42
- Total cannabinoids [3]: 16.585
- Total d9THC [3]: 0.55
- alpha-pinene [3]: 0.01702 % wt/wt
- beta-myrcene [3]: 1.084 % wt/wt
- beta-pinene [3]: 0.02447 % wt/wt
- total terpenes [3]: 1.725 % wt/wt
- Alpha-bisabolol [4]: 0.1326 % wt/wt and 0.0981 % wt/wt and 0.1139 % wt/wt and 0.0915 % wt/wt
- Alpha-humulene [4]: 0.0912 % wt/wt and 0.0723 % wt/wt and 0.0736 % wt/wt and 0.0674 % wt/wt
- Beta-caryophyllene [4]: 0.2182 % wt/wt and 0.1794 % wt/wt and 0.192 % wt/wt and 0.1699 % wt/wt
- CBCA [4]: 0.71 and 0.73 and 0.72 and 0.76
- CBD [4]: 0.17 and 0.12 and 0.33 and 0
- CBDA [4]: 15.33 and 14.37 and 13.89 and 14.8
- CBGA [4]: 0.5 (2×) and 0.46 and 0.45
- Limonene [4]: 0.213 % wt/wt and 0.1272 % wt/wt and 0.113 % wt/wt and 0.1141 % wt/wt
- THCA [4]: 0.65 and 0.63 (2×) and 0.59
- Total CBD [4]: 13.61 and 12.73 and 12.52 and 12.98
- Total CBG [4]: 0.44 (2×) and 0.4 (2×)
- Total cannabinoids [4]: 17.36 and 16.31 and 15.98 and 16.69
- Total d9THC [4]: 0.57 and 0.55 and 0.52 and 0.56
- alpha-pinene [4]: 0.0398 % wt/wt and 0.0283 % wt/wt and 0 % wt/wt (2×)
- beta-myrcene [4]: 1.6091 % wt/wt and 0.9913 % wt/wt and 0.8332 % wt/wt and 0.9015 % wt/wt
- beta-pinene [4]: 0.0299 % wt/wt and 0.023 % wt/wt and 0.0257 % wt/wt and 0.0193 % wt/wt
- total terpenes [4]: 2.43 % wt/wt and 1.6 % wt/wt and 1.43 % wt/wt and 1.44 % wt/wt
- total terpene content (application of 1 mM or 4.25 mM): increased
- Aboveground fresh weight and dried weight compared to the control plants (at both 1 mM and 10 mM): significantly reduced

— patent US11638427B2, “Methods and compositions for altering secondary metabolites in plants” (Impello Biosciences, Inc, priority 2020, dated 2023)
